Results on one compound are retold here after patent US20240131168A1, “NAPHTHALENE RING-CONTAINING COMPOUND, PHARMACEUTICAL COMPOSITION CONTAINING SAME, AND USE THEREOF” (JIANGSU YAHONG MEDITECH CO., LTD., priority 2021, published 2024).

One test has as its system MCF-7. The test can be described thus: CellTiter-Glo cell proliferation inhibition, MCF-7 (Effect Example 2). Format: cell-based. To be noted: Homo sapiens, MCF7, 144 h, MCF-7 (CTG), 6 days, starting concentration 10 μM. The gist of the method: (§1)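 MCF-7, TamR-MCF-7, and CRISPR-edited MCF-7 ER D538G or Y537S cells were seeded at 1,000 or 2,000 cells/well in EMEM and cultured 24 h. They were then exposed to a 4-fold, 10-point series (top 10 µM before addition to wells) for 6 days or 72 h at 37 °C. CellTiter-Glo luminescence gave IC50 and maximum % inhibition.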

The test system of the next test is TamR-MCF-7. The experiment in a line: CellTiter-Glo cell proliferation inhibition, TamR-MCF-7. In kind it is cell-based. To be noted: 144 h, TamR-MCF-7 (CTG), 6 days, starting concentration 10 μM. The procedure, abridged: as §1
For orientation: ATP-based viability assays read luminescence as a measure of living cells.

For the next test, the system named is MDA-MB-468. The test can be described thus: CellTiter-Glo cell proliferation inhibition, MDA-MB-468. To be noted: Homo sapiens, 144 h; MDA-MB-468 (CTG), 6 days, starting concentration 10 μM; read-out: IH % max (maximum inhibition percentage). Format: cell-based.
A further test addresses T1, estrogen receptor (Homo sapiens, UniProt P03372).
T1 sequence (P03372 1-595): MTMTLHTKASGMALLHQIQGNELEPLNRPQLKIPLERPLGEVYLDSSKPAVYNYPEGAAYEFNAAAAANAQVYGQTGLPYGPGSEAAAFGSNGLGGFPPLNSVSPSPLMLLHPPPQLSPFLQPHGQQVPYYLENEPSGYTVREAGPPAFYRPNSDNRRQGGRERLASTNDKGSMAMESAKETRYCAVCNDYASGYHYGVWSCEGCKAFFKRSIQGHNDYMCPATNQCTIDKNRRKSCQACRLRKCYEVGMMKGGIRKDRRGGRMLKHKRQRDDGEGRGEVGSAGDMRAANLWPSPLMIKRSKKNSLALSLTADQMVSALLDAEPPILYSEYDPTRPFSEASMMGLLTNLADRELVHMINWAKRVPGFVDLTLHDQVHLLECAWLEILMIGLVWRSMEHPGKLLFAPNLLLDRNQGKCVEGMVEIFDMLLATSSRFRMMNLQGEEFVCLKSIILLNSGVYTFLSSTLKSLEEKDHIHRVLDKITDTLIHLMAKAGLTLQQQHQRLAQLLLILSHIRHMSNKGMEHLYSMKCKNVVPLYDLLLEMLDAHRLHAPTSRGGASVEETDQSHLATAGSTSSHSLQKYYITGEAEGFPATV
The following applies: background section; cited from earlier work.

Setting [1] is: read-out: IH % max (maximum inhibition percentage).

pIC50: −log10 of the molar value.

On to `C[C@]12CC[C@@H]3c4ccc(O)cc4C[C@@H](CCCCCCCCC[S+]([O-])CCCC(F)(F)C(F)(F)F)[C@H]3[C@@H]1CC[C@@H]2O` (stereo partly drawn) [Fulvestrant, fulvestrant, reference compound], for which the pIC50 with MCF-7 was 8.80; in the test with TamR-MCF-7, 6.94. In addition, the inhibition at up to 10 µM in the test with MCF-7 (setting [1]) came to 80.7%; in the test on TamR-MCF-7 (setting [1]), 71.8%; in the test on MDA-MB-468 it was 39.4%. The “maximum protein degradation rate” value on estrogen receptor was “about 61%”.

For orientation: pIC50 means −log10 of the IC50, conventionally taken in molar units. High values mean a small IC50, low ones a large IC50. For orientation: inhibition means the relative decrease from the control value, in per cent.
